Assay results taken from patent US6406881B2 (priority 1999, dated 2002).

What was measured:
Escherichia coli = assay: Mutant prevention concentration (MPC) against Escherichia coli; assay type: cell-based; settings: for WI (MPC/MIC): window index
Staphylococcus aureus = assay: Mutant prevention concentration (MPC) against Staphylococcus aureus; assay type: cell-based; settings: for WI (MPC/MIC): window index

Molecule | MPC (MPC10^10) (Escherichia coli) | WI (MPC/MIC) (Escherichia coli) | MPC (MPC10^10) (Staphylococcus aureus) | WI (MPC/MIC) (Staphylococcus aureus) | WI (MPC/MIC) (Staphylococcus aureus; listed as chloramphenicol) | WI (MPC/MIC) (Staphylococcus aureus; listed as rifampicin)
O=C(N[C@H](CO)[C@H](O)c1ccc([N+](=O)[O-])cc1)C(Cl)Cl [Chloramphenicol] | 12 μg/ml | 6.3 | 40 μg/ml | 21 | about 21 | 
CCn1cc(C(=O)O)c(=O)c2cc(F)c(N3CCNCC3)cc21 [Norfloxacin] | 1.5 μg/ml | 33 | 22 μg/ml | 26 |  | 
CO[C@H]1/C=C/O[C@@]2(C)Oc3c(C)c(O)c4c(O)c(c(/C=N/N5CCN(C)CC5)c(O)c4c3C2=O)NC(=O)/C(C)=C\C=C\[C@H](C)[C@H](O)[C@@H](C)[C@@H](O)[C@@H](C)[C@H](OC(C)=O)[C@@H]1C [Rifampicin] | >4,000 μg/ml | >800 | 480 μg/ml | 120,000 |  | greater than 120,000
NC[C@H]1O[C@H](O[C@H]2[C@H](O)[C@@H](O[C@H]3O[C@H](CO)[C@@H](O)[C@H](N)[C@H]3O)[C@H](N)C[C@@H]2N)[C@H](N)C[C@@H]1O [Tobramycin] | 25 μg/ml | 21 | 20 μg/ml | 74 |  | 
CN[C@H](CC(C)C)C(=O)N[C@H]1C(=O)N[C@@H](CC(N)=O)C(=O)N[C@H]2C(=O)N[C@H]3C(=O)N[C@H](C(=O)N[C@H](C(=O)O)c4cc(O)cc(O)c4-c4cc3ccc4O)[C@H](O)c3ccc(c(Cl)c3)Oc3cc2cc(c3O[C@@H]2O[C@H](CO)[C@@H](O)[C@H](O)[C@H]2O[C@H]2C[C@](C)(N)[C@H](O)[C@H](C)O2)Oc2ccc(cc2Cl)[C@H]1O [Vancomycin] |  |  | 40 μg/ml | 61 |  | 
Penicillin | 300 μg/ml | 100 | 1 μg/ml | 42 |  | 
